Values after ≈ are worked out from the molar mass of the structure shown. Peptide text beside a SMILES is read from it.
Columns and labels:
Format in all cases: functional
Nakaseomyces glabratus [1] = experiment: Antifungal activity against Candida glabrata after 48 hrs by broth microdilution
Pichia kudriavzevii [2] = experiment: Antifungal activity against Candida krusei after 48 hrs by broth microdilution
Candida parapsilosis [3] = experiment: Antifungal activity against Candida parapsilosis after 48 hrs by broth microdilution; details: Lodderomyces parapsilosis
Candida tropicalis [4] = experiment: Antifungal activity against Candida tropicalis after 48 hrs by broth microdilution
Aspergillus sp. = experiment: Antifungal activity against Aspergillus sp. after 48 hrs by broth microdilution
Curvularia = experiment: Antifungal activity against Curvularia species after 48 hrs by broth microdilution
Fusarium sp. = experiment: Antifungal activity against Fusarium sp. after 48 hrs by broth microdilution
Paecilomyces variotii = experiment: Antifungal activity against Paecilomyces variotii after 48 hrs by broth microdilution
Talaromyces marneffei = experiment: Antifungal activity against Penicillium marneffei after 48 hrs by broth microdilution
Penicillium sp. = experiment: Antifungal activity against Penicillium sp. after 48 hrs by broth microdilution
Candida albicans [5] = experiment: Antifungal activity against Candida albicans after 48 hrs by broth microdilution
Candida albicans [6] = experiment: Antifungal activity against Candida albicans assessed as susceptible isolates after 48 hrs by broth microdilution
Nakaseomyces glabratus [7] = experiment: Antifungal activity against Candida glabrata assessed as susceptible isolates after 48 hrs by broth microdilution
Pichia kudriavzevii [8] = experiment: Antifungal activity against Candida krusei assessed as susceptible isolates after 48 hrs by broth microdilution
Candida parapsilosis [9] = experiment: Antifungal activity against Candida parapsilosis assessed as susceptible isolates after 48 hrs by broth microdilution
Candida tropicalis [10] = experiment: Antifungal activity against Candida tropicalis assessed as susceptible isolates after 48 hrs by broth microdilution
Candida albicans [11] = experiment: Antifungal activity against Candida albicans assessed as resistant isolates after 48 hrs by broth microdilution
Nakaseomyces glabratus [12] = experiment: Antifungal activity against Candida glabrata assessed as resistant isolates after 48 hrs by broth microdilution
Pichia kudriavzevii [13] = experiment: Antifungal activity against Candida krusei assessed as resistant isolates after 48 hrs by broth microdilution
Candida parapsilosis [14] = experiment: Antifungal activity against Candida parapsilosis assessed as resistant isolates after 48 hrs by broth microdilution
Candida tropicalis [15] = experiment: Antifungal activity against Candida tropicalis assessed as resistant isolates after 48 hrs by broth microdilution

| SMILES | MIC50 (Nakaseomyces glabratus [1]) [µg/mL] | MIC90 (Nakaseomyces glabratus [1]) [µg/mL] | MIC50 (Pichia kudriavzevii [2]) [µg/mL] | MIC90 (Pichia kudriavzevii [2]) [µg/mL] | MIC50 (Candida parapsilosis [3]) [µg/mL] | MIC90 (Candida parapsilosis [3]) [µg/mL] | MIC50 (Candida tropicalis [4]) [µg/mL] | MIC90 (Candida tropicalis [4]) [µg/mL] | MIC50 (Aspergillus sp.) [µg/mL] | MIC90 (Aspergillus sp.) [µg/mL] | MIC50 (Curvularia) [µg/mL] | MIC90 (Curvularia) [µg/mL] | MIC50 (Fusarium sp.) [µg/mL] | MIC90 (Fusarium sp.) [µg/mL] | MIC50 (Paecilomyces variotii) [µg/mL] | MIC90 (Paecilomyces variotii) [µg/mL] | MIC50 (Talaromyces marneffei) [µg/mL] | MIC90 (Talaromyces marneffei) [µg/mL] | MIC50 (Penicillium sp.) [µg/mL] | MIC90 (Penicillium sp.) [µg/mL] | further results |
| --- | --- | --- | --- | --- | --- | --- | --- | --- | --- | --- | --- | --- | --- | --- | --- | --- | --- | --- | --- | --- | --- |
| CC[C@H](C)[C@H](N)C(=O)N[C@@H](CC(C)C)C(=O)N[C@@H](CCCNC(=N)N)C(=O)N[C@@H](Cc1c[nH]c2ccccc12)C(=O)N1CCC[C@H]1C(=O)N[C@@H](Cc1c[nH]c2ccccc12)C(=O)N[C@@H](Cc1c[nH]c2ccccc12)C(=O)N1CCC[C@H]1C(=O)N[C@@H](Cc1c[nH]c2ccccc12)C(=O)N[C@@H](CCCNC(=N)N)C(=O)N[C@@H](CCCNC(=N)N)C(=O)N[C@@H](CCCCN)C(N)=O.Cl.Cl.Cl.Cl.Cl [OMIGANAN PENTAHYDROCHLORIDE] (H-ILRWPWWPWRRK-NH2) | 256 | 256 | 64 | 128 | 128 | 256 | 32 | 32 | 128 | 1020 | 64 | 256 | 64 | 256 | 64 | 256 | 64 | 256 | 64 | 256 | MIC50 (Candida albicans [5]): 64 µg/mL; MIC90 (Candida albicans [5]): 128 µg/mL |
| C[C@@H]1[C@H](O)[C@@H](C)/C=C/C=C/C=C/C=C/C=C/C=C/C=C/[C@H](O[C@@H]2O[C@H](C)[C@@H](O)[C@H](N)[C@@H]2O)C[C@@H]2O[C@](O)(C[C@@H](O)C[C@@H](O)[C@H](O)CC[C@@H](O)C[C@@H](O)CC(=O)O[C@H]1C)C[C@H](O)[C@H]2C(=O)O [AMPHOTERICIN B] | 1 (≈ 1.08 µM) | 1 (≈ 1.08 µM) | 1 (≈ 1.08 µM) | 2 (≈ 2.16 µM) | 1 (≈ 1.08 µM) | 1 (≈ 1.08 µM) | 1 (≈ 1.08 µM) | 1 (≈ 1.08 µM) | 0.5 (≈ 0.541 µM) | 1 (≈ 1.08 µM) | 0.25 (≈ 0.271 µM) | 0.5 (≈ 0.541 µM) | 0.25 (≈ 0.271 µM) | 0.5 (≈ 0.541 µM) | 0.25 (≈ 0.271 µM) | 0.5 (≈ 0.541 µM) | 0.25 (≈ 0.271 µM) | 0.5 (≈ 0.541 µM) | 0.25 (≈ 0.271 µM) | 0.5 (≈ 0.541 µM) | MIC (Candida parapsilosis [3]): 1 µg/mL (≈ 1.08 µM); MIC50 (Candida albicans [5]): 1 µg/mL (≈ 1.08 µM); MIC90 (Candida albicans [5]): 1 µg/mL (≈ 1.08 µM) |
| C[C@@H](c1ncncc1F)[C@](O)(Cn1cncn1)c1ccc(F)cc1F [VORICONAZOLE] | 0.06 (≈ 0.172 µM) | 2 (≈ 5.73 µM) | 0.25 (≈ 0.716 µM) | 0.5 (≈ 1.43 µM) | 0.015 (≈ 0.0429 µM) | 0.12 (≈ 0.344 µM) | 0.015 (≈ 0.0429 µM) | 16 (≈ 45.8 µM) | 0.25 (≈ 0.716 µM) | 0.25 (≈ 0.716 µM) | 0.25 (≈ 0.716 µM) | 2 (≈ 5.73 µM) | 0.25 (≈ 0.716 µM) | 2 (≈ 5.73 µM) | 0.25 (≈ 0.716 µM) | 2 (≈ 5.73 µM) | 0.25 (≈ 0.716 µM) | 2 (≈ 5.73 µM) | 0.25 (≈ 0.716 µM) | 2 (≈ 5.73 µM) | MIC (Candida tropicalis [4]): 0.015 µg/mL (≈ 0.0429 µM); Activity (Candida albicans [6]): 75%; Activity (Nakaseomyces glabratus [7]): 86.4%; Activity (Pichia kudriavzevii [8]): 100%; Activity (Candida parapsilosis [9]): 100%; Activity (Candida tropicalis [10]): 72.7%; Activity (Candida albicans [11]): 25%; Activity (Nakaseomyces glabratus [12]): 0%; Activity (Pichia kudriavzevii [13]): 0%; Activity (Candida parapsilosis [14]): 0%; Activity (Candida tropicalis [15]): 27.3%; MIC50 (Candida albicans [5]): 0.03 µg/mL (≈ 0.0859 µM); MIC90 (Candida albicans [5]): > 16 µg/mL |
| Nc1nc(=O)[nH]cc1F [FLUCYTOSINE] | 0.06 (≈ 0.465 µM) | 0.06 (≈ 0.465 µM) | 16 (≈ 124 µM) | 32 (≈ 248 µM) | 0.12 (≈ 0.93 µM) | 0.12 (≈ 0.93 µM) | 0.06 (≈ 0.465 µM) | 0.12 (≈ 0.93 µM) | > 64 | > 64 | > 64 | > 64 | > 64 | > 64 | > 64 | > 64 | > 64 | > 64 | > 64 | > 64 | MIC (Candida tropicalis [4]): 0.06 µg/mL (≈ 0.465 µM); Activity (Candida albicans [6]): 100%; Activity (Nakaseomyces glabratus [7]): 100%; Activity (Pichia kudriavzevii [8]): 0%; Activity (Candida parapsilosis [9]): 100%; Activity (Candida tropicalis [10]): 100%; Activity (Candida albicans [11]): 0%; Activity (Nakaseomyces glabratus [12]): 0%; Activity (Pichia kudriavzevii [13]): 30%; Activity (Candida parapsilosis [14]): 0%; Activity (Candida tropicalis [15]): 0%; MIC50 (Candida albicans [5]): 0.12 µg/mL (≈ 0.93 µM); MIC90 (Candida albicans [5]): 1 µg/mL (≈ 7.75 µM) |

— ChEMBL document CHEMBL1255262, “Antimicrobial activity of omiganan pentahydrochloride against contemporary fungal pathogens responsible for catheter-associated infections” (2008)
